Each structure is given as a SMILES string.

This data set is described as follows: gradient 5% acetonitrile 3 min, to 50% in 2 min, to 85% in 15 min, held 3 min, 100 µL/min. Conditions: column: Zorbax Extend-C18 2.1 x 50 mm; eluents: water / acetonitrile, 0.1% formic acid. The method, boiled down:
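Pure standards were analyzed in mixtures of ~100 molecules using HPLC coupled to a quadrupole time-of-flight mass spectrometer, in both positive and negative ionization mode. Separation used a Zorbax Extend-C18 column (2.1 × 50 mm, 1.8 μm) at 100 μL/min, with water and acetonitrile each containing 0.1% formic acid. Dead and dwell volumes were 40 μL and 900 μL, and data were collected over 3 months. Retention time was read from computationally picked adduct peaks, each inspected manually.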
On to `Cc1ccc(S(=O)(=O)N2C(=O)CCC2C(=O)N2CCN(c3ccccn3)CC2)cc1` (stereo not drawn), for which the RP-LC retention time is 612 s.
Consider `NC(=O)C1CCN(C(=O)c2ccc3c(c2)CCN3S(=O)(=O)c2ccc(Cl)cc2)CC1`, for which the RP-LC retention time came to 711 s.
`Cc1ccc(NS(=O)(=O)c2ccc(-c3nnc(C4CCC4)o3)o2)c(C)c1` had an RP-LC retention time of 977 s.
`Fc1ccccc1-c1nc(-c2ccc3c(c2)ncn3CCN2CCCC2)no1` showed an RP-LC retention time of 629 s.
For `CCN1CCCn2cc(S(=O)(=O)NCc3ccc(C)cc3)cc2C1=O`, the RP-LC retention time was 778 s.
Consider `CN(C)S(=O)(=O)c1ccc(-c2nnc(C(=O)NC3CCCCCC3)o2)cc1`, for which the RP-LC retention time was found to be 926 s.
As to `COc1cccc(CNC(=O)C2(C)CCCN(C(=O)Nc3ccc(Cl)cc3)C2)c1` (stereo not drawn), the RP-LC retention time turned out to be 942 s.
With `CCCN1C(=O)COc2ccc(-c3noc(/C=C/c4ccccc4)n3)cc21`, the RP-LC retention time was 1250 s.
Regarding `CN(C)c1nn(CC(=O)Nc2ccc(S(C)(=O)=O)cc2)cc1-c1ccccc1`, the RP-LC retention time was found to be 786 s.
As for `Fc1ccc(N2CCN(Cc3nnc(-c4ccccc4)o3)CC2)cc1`, the figure is 691 s; as for `COC(=O)c1ccc(NS(=O)(=O)c2ccc3c(c2)C(=O)N(C)c2ncccc2O3)cc1`, 881 s; as for `CCCNC(=O)NC1CCN(c2nc3ccccc3n(C)c2=O)CC1`, 715 s.
As for `Cc1noc(C)c1CC(=O)NC1CCN(c2ccc(=O)n(CCOc3ccccc3)n2)C1` (stereo not drawn), the figure is 701 s; as for `Cc1ccc(-n2nc(N3CCCC(C(=O)NCCC4=CCCCC4)C3)ccc2=O)cc1Cl` (stereo not drawn), 1060 s; as for `Cn1nnnc1NCc1ccc(-c2cccc(Cl)c2)o1`, 826 s.
As for `CC1CCCC(NC(=O)Cn2nc(Cc3ccncc3)c3ccccc3c2=O)C1C` (stereo not drawn), the figure is 655 s; as for `N#Cc1ccc(C(=O)N2CCCC2c2nc(-c3ccccc3)no2)cc1` (stereo not drawn), 925 s.
Compound `COc1cn(C)c(C(=O)NCCC(c2ccccc2)c2ccccc2)cc1=O` registered an RP-LC retention time of 667 s.
With `Cc1ccc(CNC(=O)CCc2conc2-c2ccccc2)o1` the figure was 865 s; with `Cc1nnc(-c2cn(CC(=O)Nc3ccc(Br)cc3F)c3ccccc23)o1`, 890 s.
For the compound `CC(C)N1C(=O)c2cccnc2Sc2cc(NC(=O)c3ccc(Cl)cc3)ccc21`, the RP-LC retention time was 964 s.
As for `CC(C)c1noc(-c2ccn3c(CC(=O)N4CCSCC4)nnc3c2)n1`, the figure is 726 s; as for `Cc1ccc(C)c(S(=O)(=O)N2[C@H]3CC[C@@H]2c2cnc(-c4ccccc4)nc2C3)c1`, 1230 s; as for `CC1CCN(S(=O)(=O)c2ccc(-c3nnc(C(=O)NCCN4CCCCCC4)o3)cc2)CC1`, 726 s.
For `Cc1noc(C)c1S(=O)(=O)N1CCC2(CC1)NCCc1c2[nH]c2ccccc12`, the RP-LC retention time came out at 588 s.
`CCCNC(=O)C1CCCN(C(=O)c2[nH]c(C)c(C(=O)OC)c2C)C1` (stereo not drawn): the RP-LC retention time came to 668 s.
As for `O=c1c(NC2CCCCCC2)nc2ccncc2n1Cc1ccccc1`, the RP-LC retention time was 807 s.
`CCc1noc(NC(C)=O)c1-c1ccc(OC)c(S(=O)(=O)Nc2ccccc2)c1` displayed an RP-LC retention time of 764 s.
Turning to `CSc1ncccc1C(=O)NCc1nn(C(C)C)c2ccccc12`, the RP-LC retention time stood at 830 s.
As for `Cc1noc(CNC(=O)Cc2ccc(F)cc2)n1`, the figure is 643 s; as for `CCN(CC)CCNC(=O)c1ccc(-c2nc(CCN(C)C(C)=O)no2)cc1`, 576 s; as for `Cn1cnc(S(=O)(=O)N2CCC(C(=O)Nc3cccc(C#N)c3)CC2)c1`, 674 s.
Turning to `CCc1ccc(Oc2cc(N3CCC(C(=O)NC4CCCCCC4)CC3)ncn2)cc1`, the RP-LC retention time was determined as 1110 s.
With `NC(=O)C1CCN(C(=O)c2cn(-c3cccc(Cl)c3)nn2)CC1` the figure was 646 s; with `Fc1ccc(Cc2noc(-c3nc(-c4ccccc4)no3)n2)cc1`, 1160 s.
With `Cc1cccc(N2CCN(Cc3nc(-c4ccc(N5CCSCC5)nc4)no3)CC2)c1`, the RP-LC retention time is 1000 s.
Consider `COc1cc(-c2ccc(F)cc2)nc2ccc(NS(=O)(=O)c3ccc(C#N)cc3)cc12`, for which the RP-LC retention time is 784 s.
As for `Cc1ccc(CC(=O)N2CCc3cc(-c4ccno4)ccc32)cc1`, the figure is 1020 s; as for `COc1cc(C(=O)Nc2cnn(C)c(=O)c2N2CCCCC2)cc(OC)c1OC`, 878 s; as for `Cn1c(=O)n(C)c2cc(CNCCc3ccc(S(N)(=O)=O)cc3)ccc21`, 538 s.
With `COc1cc(NC(=O)Nc2nc(-c3nc4ccccc4s3)cs2)cc(OC)c1OC` the figure was 863 s; with `COc1ccccc1N1CCN(C(=O)c2cc3c(=O)n(C)ccc3n2C)CC1`, 651 s.
With `O=C(c1cnn(-c2ccccc2)n1)N1CCCC(COCc2ccccc2)C1` (stereo not drawn) the figure was 1110 s.
`O=C(Nc1ccnn1Cc1ccccc1)c1cc(=O)c2cc(Br)ccc2o1` registered an RP-LC retention time of 907 s.
With `Cc1cccc(NC(=O)C2CCN(S(C)(=O)=O)c3cc(Cl)ccc3O2)c1` (stereo not drawn) the figure was 1020 s; with `COc1ccc(-c2nnc(SCC(=O)Nc3nccs3)o2)cc1`, 720 s; with `O=C(c1ccoc1)N1CCC(c2noc(-c3ccncc3)n2)C1` (stereo not drawn), 665 s.
With `Cc1ccc(C)c(N2CCN(C(=O)c3csc(C(=O)NC4CC4)n3)CC2)c1` the figure was 968 s.
In turn, `CCn1ccc2sc(C)c(C(=O)NCc3ccc(OC)c(OC)c3)c2c1=O` yielded an RP-LC retention time of 716 s.
For the compound `CC(C)CNC(=O)c1cn(-c2ccc(-c3nc(C4CC4)no3)cn2)cn1`, the RP-LC retention time amounted to 1110 s.
With `CCn1ccc2cc(S(=O)(=O)N3CCCC(C(=O)NCc4cc(OC)ccc4OC)C3)ccc21` (stereo not drawn) the figure was 988 s.
With `O=C1C2N=NN(Cc3nc(-c4ccccc4Br)no3)C2C(=O)N1c1ccc2c(c1)CCC2` (stereo not drawn) the figure was 1060 s.
With `COc1cccc(NC(=O)Cn2nc3cc(C)nc(Nc4cc(C)cc(C)c4)n3c2=O)c1`, the RP-LC retention time was determined as 1110 s.
As for `CCSc1nnc(NC(=O)CSc2nnc(COc3ccccc3)o2)s1`, the figure is 806 s; as for `Cc1ccc(CNC(=O)c2cnc(-c3ccccc3)nc2-c2ccncc2)cc1C`, 916 s; as for `COc1ccc(-c2nc3sc(C(=O)N4CCOCC4)c(C)n3c2NC(C)(C)C)cc1`, 763 s.
With `O=C(c1cc(O)c(O)c([N+](=O)[O-])c1)c1ccccc1F` the figure was 716 s.
With `Cc1ccc(-c2cc(C(=O)NCCN3CCN(C)CC3)n(C)c2)cc1`, the RP-LC retention time came to 624 s.
In turn, `Nc1cc(C2CCN(C(=O)Nc3ccc(F)cc3)CC2)no1` gave an RP-LC retention time of 668 s.
In the case of `CC(NC(=O)C(=O)NCC1CCN(C(=O)NC(C)(C)C)CC1)c1ccccc1` (stereo not drawn), the RP-LC retention time amounted to 749 s.
In turn, `CCSc1nc2c(s1)c(=O)n(-c1ccccc1)c(=O)n2CC(=O)NC1CCCCC1` gave an RP-LC retention time of 645 s.
For the compound `O=c1cc(-c2ccncc2)nc(N2CCCC2)n1Cc1ccccc1F`, the RP-LC retention time worked out at 1220 s.
For `COc1ccc(NC(=O)C2CCN(c3cncnc3N3CCCC3)CC2)cc1OC`, the RP-LC retention time worked out at 616 s.
As for `COc1ccccc1N1CCN(c2cc(SCC(=O)Nc3ccc(Cl)cc3F)ncn2)CC1`, the figure is 1260 s.
The compound `COc1ccc(-c2noc(C3CCCN3C(=O)Nc3ccc(Cl)cc3)n2)cc1` (stereo not drawn) showed an RP-LC retention time of 920 s.
As to `Cc1ccc(F)cc1NS(=O)(=O)c1cc(-c2[nH]ncc2C(=O)N2CCCCC2)oc1C`, the RP-LC retention time was determined as 791 s.
The compound `O=C(Cc1cccs1)Nc1cc(F)c2nc(N3CCOCC3)ccc2c1` showed an RP-LC retention time of 793 s.
`COc1ccc(N2CCN(c3cc(SCC(=O)Nc4ccc(C)cc4C)ncn3)CC2)cc1` displayed an RP-LC retention time of 1020 s.
As for `COc1cc(OC)c(NC(=O)Nc2c(-c3ccc(C)cc3)nc3ccccn23)cc1Cl`, the figure is 721 s; as for `Cc1ccccc1Nc1c(-c2c(F)cccc2Cl)nc2ccc(Br)cn12`, 997 s.
As for `CN1CCN(C(CNC(=O)c2ccc(Br)o2)c2ccc(N(C)C)cc2)CC1` (stereo not drawn), the figure is 566 s; as for `CCc1nc2c(c(=O)n1CC(=O)NC1CCCC1)CN(Cc1ccccc1)CC2`, 621 s; as for `O=C(c1cc(S(=O)(=O)N2CCCC(C(=O)N3CCN(c4ccccc4)CC3)C2)c[nH]1)N1CCCC1` (stereo not drawn), 804 s.
Turning to `O=C(NCCC1CCN(C(=O)Nc2ccccc2)CC1)c1ccsc1`, the RP-LC retention time came to 749 s.
Compound `CSc1ccc(NC(=O)c2c(C)oc3ccn(Cc4ccc(F)cc4)c(=O)c23)cc1` gave an RP-LC retention time of 1270 s.
Turning to `CCOC(=O)c1c(C)oc2nc(C)nc(NCc3ccc4c(c3)OCO4)c12`, the RP-LC retention time amounted to 1100 s.
For the compound `CCc1nc2cccnc2n1CCN1CCN(C(=O)Nc2ccc(C)c(Cl)c2)CC1`, the RP-LC retention time came to 742 s.
Regarding `CCOc1ccc(NC(=O)N2C[C@@H](F)C[C@H]2C(=O)N2CCc3ccccc3C2)cc1`, the RP-LC retention time turned out to be 776 s.

For the origin of these results see the METLIN SMRT retention time set (Domingo-Almenara et al. 2019).
